# Data published in patent US20080138284A1, “Novel Peptides That Promote Lipid Efflux” (Lipid Sciences, Inc., priority 2006, published 2008).
# Columns and labels:
# [1] = test system: HeLa cells stably transfected with human ABCA1 cDNA (ABCA1 cells); test: Cholesterol and phospholipid efflux from ABCA1-transfected HeLa cells (incl. time course); format: cell-based
# Protocol: (§1) HeLa cells stably transfected with human ABCA1 cDNA (ABCA1 cells) and HeLa cells transfected with only a hygromycin-resistant control plasmid (control cells) are produced and grown in α-modified Eagle's medium (aMEM) plus 10% fetal calf serum, as described by Remaley et al. (Biochem. Biophys. Res. Commun. 280:818-823, 2001). Cholesterol and phospholipid efflux is performed for 18 hours on noncholesterol-loaded cells radiolabeled with either cholesterol or choline (Remaley et al., Arterioscler. Thromb. Vasc. Biol. 17:1813-1821, 1997). Percentage efflux is calculated after subtracting the radioactive counts in the blank media (aMEM plus 1 mg/ml of BSA), and expressed as the percent of total radioactive counts removed from the cells during the efflux period.
# (§2) ABCA1 cells are used to assess the ability of apoA-I and synthetic peptides to efflux lipid from cells. […] The peptides of the present invention efflux approximately 2- to 4-fold more cholesterol and phospholipid from ABCA1 cells than from control cells. Both the peptides of the present invention and apoA-I began to show saturation for lipid efflux at approximately the same protein concentration of 10 μg/ml.
# Cholesterol efflux from ABCA1 cells to apoA-I is first detectable after 2 hours and increases throughout the 30 hour efflux period. […]
# [2] = test system: HeLa cells transfected with only a hygromycin-resistant control plasmid (control cells); test: Cholesterol and phospholipid efflux from control HeLa cells (incl. time course); format: cell-based, human; details: 30 hour efflux period
# Protocol: as §1, §2
# Cholesterol efflux from ABCA1 cells to apoA-I is first detectable after 2 hours and increases throughout the 30 hour efflux period. […] Overall, the kinetics for cholesterol efflux to peptides of the present invention from ABCA1 cells is similar to that of apoA-I, except that cholesterol efflux is first detectable after 30 minutes.
# [3] = test system: FU5AH rat hepatoma cells (SR-B1); test: SR-B1 mediated cholesterol efflux; format: cell-based; details: samples minus blank; Apo A-I @ 20 μg/ml
# Text: (§3) The methods employed in this study have been described in U.S. Pat. Nos. 7,029,863, 7,060,452, U.S. Patent Application Publication No. 2005/0191715, and in Moya et al., Arteriosclerosis & Thrombosis 1994:14:1056-1065 and Liu et al., J. Biol. Chem., 2003:278(44), 42976-42984. SR-B1 mediated cholesterol efflux is examined in FU5AH rat hepatoma cells and ABCA1 mediated cholesterol efflux is examined in J774 mouse macrophage cells as described in these references.
# [4] = test system: J774 mouse macrophage cells (ABCA1); test: ABCA1 mediated cholesterol efflux; format: cell-based; details: samples minus blank, Apo A-I @ 20 μg/ml
# Text: as §3
# CD11b = CD11b expression in stimulated monocytes by flow cytometry; format: cell-based; details: human monocytes, 1 μmol/L PMA, 20 μg/ml apoA-1 or peptide
# Protocol: Monocyte Isolation Peripheral whole blood (PWB) is drawn from healthy consenting individuals into syringes containing sodium citrate (final concentration—19.2 mM). Resting human monocytes are isolated from PWB by density centrifugation with Lymphoprep (Axis Shield). Mononuclear cells (MNCs) are collected and monocytes are further separated to purity using the Dynal negative isolation kit (Invitrogen). Monocytes are resuspended in phosphate buffered saline (PBS) and cell number is determined counting cell suspension on an automated hematology analyzer (Sysmex, KX-21N, USA). Purification of HDL and apoA-1 Human plasma apoA-1 is isolated as previously described and the purity determined using total mass spectrometry. Flow Cytometry 100 μL of monocytes are stimulated with either 1 μmol/L phorbol-myristate-acetate (PMA) or 1 μg/ml lipopolysaccharide (LPS) (Sigma, Australia) in the presence or absence of apoA-1 (20 μg/ml), or 20 μg/ml of the test peptides of the present invention. SEQ ID NOs: 72, 80, 89, 354, 355 and 372 are also tested individually. The cells are incubated with the FITC conjugated antibody to either the active epitope of CD11b (eBiosciences, USA, Clone CBRM1/5) or total CD11b (Serotec, USA, Clone ICRF44) for 15 min at 37° C. Cells are then fixed with 4% paraformaldehyde. Samples are controlled for by using the appropriately matched isotype matched negative control (FITC-anti-mouse IgG) (Serotec, USA, Clone W3/25). CD11b expression is measured by flow cytometry using FACS Calibur (Becton Dickinson). Analysis is conducted using the Cell Quest Pro software. Statistical Analysis Values are presented as the mean ±SD or percentage of control ±SD. FACS results are analyzed for statistical significance using one-way ANOVA followed by Bonferroni post-hoc test. Significance is accepted at P<0.05. […] The combined effects of increasing cholesterol efflux and decreasing inflammation indicate that the peptides of the present invention effectively mimic the function of Apo AI and will decrease atherosclerosis.
# [5] = test system: HeLa cells stably transfected with human ABCA1 cDNA (ABCA1 cells); details: as previously described (Hamon et al.; Remaley et al.); cited from earlier work
# [6] = test system: HeLa cells transfected with only a hygromycin-resistant control plasmid (control cells); details: as previously described (Hamon et al.; Remaley et al.); cited from earlier work
substance,measurement,setting,value
"apolipoprotein A-I [Apo A-I, reference compound]",protein concentration at which lipid efflux begins to show saturation,[1],~10 µg/mL
same,time after which cholesterol efflux from ABCA1 cells is first detectable,[1]; 30 hour efflux period,2 h
same,"cholesterol efflux to apoA-I from control cells, time course",[2],no significant increase above background
same,SR-BI Mediated Efflux,[3],0.26 % Per 4 h
same,+ABCA1 Cells (efflux),[4],20.682 + 0.724
same,−ABCA1 Cells (efflux),[4],1.713 ± 0.409
same,ABCA1 Mediated Efflux,[4]; equals +ABCA1 minus −ABCA1 cells,18.97 % Per 4 h
same,PMA induced CD11b expression,CD11b,significantly reduce
same,efflux of cholesterol and phospholipid to apoA-I after transfection with ABCA1,[5],do so after transfection with ABCA1
same,efflux of cholesterol and phospholipid to apoA-I from control cells,[6],do not efflux significant amounts
